Converted amounts (≈) assume the structure as drawn. “And” between values parts separate entries of the source, which are not always exact repeats. Identical values can stand only once.
Columns and labels:
[1] = system: CckA from Caulobacter crescentus; design: method as in PMID 29110989; details: cited from earlier work
[2] = system: PhoQ from Salmonella typhimurium; design: method as in PMID 29110989; details: cited from earlier work
[3] = system: Staphylococcus aureus str. Newman; experiment: Minimal inhibitory concentration (microdilution) against S. aureus; format: cell-based; details: for MIC S. aureus: Table ST3
Description: (§1) Staphylococcus aureus str. Newman, Enterococcus faecalis vanA (strain E0155), Enterococcus faecium vanA (strain E1654), Escherichia coli ATCC 25922, Escherichia coli D21f2 with a truncated LPS barrier, Escherichia coli JW5503 (ΔtolC) ([49]), Pseudomonas aeruginosa ATCC 27853, and Pasteurella haemolytica ATCC 29701 were grown in Mueller-Hinton Broth (MHB) (Oxoid, Basingstoke, UK) and incubated at 37°C.
(§2) The minimal inhibitory concentration was determined using the microdilution method following the guidelines of the European Committee on Antimicrobial Susceptibility Testing ([50]). Briefly, a series of twofold dilutions in MHB of each compound were made in a 96-well plate, with final concentrations ranging from 50 to 0.39 µg/mL in 100 µL final volume per well. A hundred microliters of 1:100 dilution of an overnight culture of the correspondent bacteria in MHB was added to each well. Plates were incubated for 18 hours at 37°C. MIC was recorded as the lowest concentration where no growth was detected as measured by optical density at 600 nm (OD600) using Spectramax M5 (Molecular Devices LLC, San Jose, CA, USA). […] Wells containing bacteria with or without 1% DMSO and medium alone were included as controls in every plate.

in vitro = format: cell-based; details: human
Description: (§3) HEK293 cells and the human hepatocellular carcinoma cells (HepG2) were routinely cultured in 75-cm^2 culture flasks (Corning Incorporated) on high-glucose Dulbecco’s modified Eagle medium (DMEM) containing glutaMax and phenol red (Gibco) supplemented with 1% penicillin/streptomycin (Gibco) and 10% fetal bovine serum (FBS) (Gibco). Cells were maintained at 37°C and 5% CO2.
(§4) Cytotoxicity assays with HEK293 and HepG2 cells were performed in 96-well plates seeded with 5 × 10^4 cells/well and incubated for 24 hours to reach 80%–90% confluency. Exterior wells were filled with only medium to prevent evaporation. Culture medium was removed from the cells, and 100 µL of exposure medium [high-glucose DMEM without phenol red (Gibco)] was added to avoid a potential interaction between FBS components or antibiotics and tested compounds. A twofold dilution series of compounds in exposure medium (range 100–3.2 μg/mL) was made in a separate 96-well plate, and 100 µL of each of these dilutions was added to the assay plates for 24 hours at 37°C in the presence of 5% CO2. Control wells contained cells with DMEM, DMEM + 1% DMSO (vehicle control), or DMEM + 20% DMSO. Wells without cells were also included as negative control. After exposure, the medium was replaced with 100 µL 10% Alamar Blue (Invitrogen) in exposure medium. After 45 min incubation at 37°C and 5% CO2, fluorescence was measured on a Spectramax M5 plate reader at λex = 541 nm, λem = 590 nm. Cell viability compared with the vehicle control was calculated, and inhibition curves for each compound were fitted (non-linear curve fit, four variables, bottom constrained = 0) in Prism 9 (GraphPad Software, San Diego, USA).

HEK293 cells [4] = experiment: in vitro; format: cell-based; details: for Selectivity Index: LC50/MIC (HEK293 / S. aureus); for LC20: human, 24 h
Description: as §3, §4

[5] = system: Enterococcus faecium vanA (strain E1654); experiment: MIC (microdilution) against E. faecium; format: cell-based; details: Enterococcus faecium, read-out: MIC E. faecium
Description: as §1, §2

[6] = system: Enterococcus faecalis vanA (strain E0155); experiment: MIC (microdilution) against E. faecalis; format: cell-based; details: Enterococcus faecalis, read-out: MIC E. faecalis
Description: as §1, §2

[7] = system: Pasteurella haemolytica ATCC 29701; experiment: MIC (microdilution) against P. haemolytica; format: cell-based; details: Mannheimia haemolytica, ATCC29701, read-out: MIC P. haemolytica, Table ST1
Description: as §1, §2

[8] = system: Pseudomonas aeruginosa ATCC 27853; experiment: MIC (microdilution) against P. aeruginosa; format: cell-based; details: Pseudomonas aeruginosa, ATCC27853; Table ST1; read-out: MIC P. aeruginosa
Description: as §1, §2

[9] = system: Escherichia coli ATCC 25922; experiment: MIC (microdilution) against E. coli; format: cell-based; details: Escherichia coli, ATCC25922; Table ST1; read-out: MIC E. coli
Description: as §1, §2

[10] = system: Escherichia coli JW5503 (ΔtolC); experiment: MIC (microdilution) against E. coli JW5503; format: cell-based; details: Escherichia coli, read-out: MIC E. coli JW5503
Excerpt: We also tested the inhibitory activity of compounds in two different E. coli mutants: (i) E. coli JW5503 that lacks TolC efflux pumps and (ii) E. coli D21f2 that has a defective LPS inner core increasing permeability of the outer membrane. E. coli D21f2 has a slightly higher susceptibility to DPP compounds than E. coli ATCC25922.
as §1, §2

S. aureus str. Newman = experiment: Membrane permeability using SYTOX-Green, flow cytometry; format: cell-based; details: for % FITC stained bacteria 0.5 xMIC: 0.5× MIC; for % FITC stained bacteria 0.5 xMIC / % FITC stained bacteria 1 xMIC / % FITC stained bacteria 2 xMIC: 5 min exposure; for % FITC stained bacteria 1 xMIC: 1× MIC; for % FITC stained bacteria 2 xMIC: 2× MIC; for Membrane damage: if considered to cause membrane damage to S. aureus
Description: S. aureus str. Newman was grown to exponential phase (OD600 = 0.4) in MHB media. […] Nisin (Sigma-Aldrich) and novobiocin (Sigma-Aldrich) were used as positive and negative controls for membrane permeabilization, and stained and unstained untreated controls were also included in each assay. After exposure, samples were centrifuged at 4,000 r.p.m. for 5 min and resuspended in PBS. Bacteria were dyed by adding the fluorescent nuclear stain SYTOX Green (Molecular Probes, Invitrogen) to a final concentration of 0.5 µM and incubating for 5 min in the dark. Samples were centrifuged again and resuspended with PBS to remove unbound stain. Three hundred microliters of each sample was transferred to a clean well in a 96-well clear-bottom plate (Corning Incorporated). Fluorescence was measured in CytoFLEX flow cytometer (Beckman Coulter, Brea, CA, USA) using the green (FITC) channel with the excitation wavelength at 488 nm. Overlay histograms were created with CytExpert Software (Beckman Coulter, Brea, CA, USA).

sheep red blood cells = experiment: Haemolysis assay; format: cell-based
Description: The hemolysis assay was adapted from the study by Evans et al. ([65]). Briefly, sheep RBC 10% washed pooled cells in PBS (Rockland Immunochemicals, Limerick, PA, USA) were diluted 1:5 to give a final concentration of 2% RBCs in PBS. […] A non-treated control, 1% DMSO (vehicle control), and complete cell lysis control (Triton-X 2%) were included in each assay. After exposure samples were centrifuged at 4°C at 1,000 g for 15 min and 100 µL of supernatant transferred to a clean well in a 96-well, clear, flat-bottom plate (Corning Incorporated). Released hemoglobin was measured by absorption at 540 nm using a Spectramax M5 plate reader. The experiments were performed in quadruplicate. The percentage of hemolysis was calculated as follows:
Hemolysis=A540nm,testcondition−A540nm,DMSOcontrol/A540nm,TritonXControl−A540nm,DMSOcontrol

HEK293 cells [11] = experiment: Cell imaging of HEK293 cells; format: cell-based; details: for cells in G2/M phase: HEK293, LC20, 24 hours exposure, DMSO control 2.68% ± 1.31%; for Morphological changes of HEK293 cells: LC20, 24 hours exposure, 40× amplification
Description: HEK293 cells were plated in 24-well plates on exposure medium for 24 hours (500,000 cells/well). Cells were exposed to a subset of compounds at a lethal concentration of 20% (LC20). After 24 hours exposure, cells were fixed with 2% glutaraldehyde for 15 min, washed with water, permeabilized with 0.5% Triton-X, washed twice with water, and stained with Toluidine blue 0.3%. For 100× amplification, cells were harvested by pipetting up and down in 250 µL of exposure medium. Cells from three wells treated with the same compound were pooled and centrifuged for 5 min at 1,500 r.p.m. The cell pellet was fixed in 0.1 M cacodylate buffer containing 2% glutaraldehyde (vol/vol) (pH 7.4). After 1 hour on ice, the pellet was washed with 0.1 M cacodylate buffer and fixed in 0.1 M cacodylate buffer containing 1% osmium tetroxide (wt/vol). After a further hour on ice, the cell pellet was embedded in hard Epon and 1-µm slides were cut and stained with 1% toluidine blue and 1% borax (wt/vol). Cell abnormalities were assessed by microscopy using a Leica DM6B light microscope (Leica Microsystems B.V., Amsterdam, the Netherlands) at 100× magnification.

[12] = Staphylococcus aureus, NEWMAN, Fig 2
[13] = Staphylococcus aureus, NEWMAN, Fig 2, value in parentheses
[14] = Table ST3, value in parentheses

Q: Which IC50 [1] does the source give for CCc1cc(-c2n[nH]c(C)c2-c2ccc3c(c2)OCCO3)c(O)cc1O [CCT018159] here?
A: The IC50 was 30 µM.

Q: And the IC50 [2]?
A: The IC50 was 261 µM.

Q: Which IC50 [1] does the source give for COc1ccc(-c2c(-c3cc(Cl)c(O)cc3O)n[nH]c2C)cc1 [Compound 5b] here?
A: The IC50 was 14 µM.

Q: What about the IC50 [2] of the same compound?
A: The IC50 was 238 µM.

Q: Which MIC [3, 12] does the source give for CCOc1ccc(-c2[nH]nc(C(F)(F)F)c2-c2ccc(OC)cc2)c(O)c1 [DPP-14] here?
A: Its MIC is 6.25 µg/mL.

Q: And the MIC [3, 13]?
A: Its MIC is 16.4 µM.

Q: And the “MIC S. aureus” value [3]?
A: The value was 6.25 µg/mL (≈ 16.5 µM).

Q: And the MIC [3, 14]?
A: Its MIC is 16.45 µM.

Q: And the CC50 at 24 h (in vitro)?
A: Its CC50 at 24 h is 6.57 µg/mL and 17.3 µM.

Q: What about the “Selectivity Index” value (HEK293 cells [4]) of the same compound?
A: Its value is 1.05.

Q: And the LC20 (HEK293 cells [4])?
A: The LC20 was 3 µg/mL (≈ 7.93 µM).

Q: What about the MIC [5] of the same compound?
A: The MIC was 12.5 µg/mL (≈ 33 µM).

Q: What about the MIC [6] of the same compound?
A: Its MIC is 12.5 µg/mL (≈ 33 µM).

Q: What about the MIC [7] of the same compound?
A: The MIC was greater than 250 µg/mL.

Q: What about the MIC [8] of the same compound?
A: Its MIC is greater than 250 µg/mL.

Q: And the MIC [9]?
A: The MIC was greater than 250 µg/mL.

Q: What about the MIC [10] of the same compound?
A: Its MIC is 3.13 µg/mL (≈ 8.27 µM).

Q: And the “% FITC stained bacteria 0.5 xMIC” value (S. aureus str. Newman)?
A: Its value is 28.78%.

Q: And the “% FITC stained bacteria 1 xMIC” value (S. aureus str. Newman)?
A: Its value is 44.58%.

Q: What about the “% FITC stained bacteria 2 xMIC” value (S. aureus str. Newman) of the same compound?
A: The value was 56.62%.

Q: What about the Membrane damage (S. aureus str. Newman) of the same compound?
A: The Membrane damage was “YES”.

Q: And the RBC hemolysis (sheep red blood cells)?
A: Its RBC hemolysis is “not hemolytic”.

Q: And the “cells in G2/M phase” value (HEK293 cells [11])?
A: Its value is 12.24% ± 1.23%.

Q: What about the “Morphological changes of HEK293 cells” value (HEK293 cells [11]) of the same compound?
A: The value was “no morphological changes”.

Q: For CCOc1ccc(-c2[nH]nc(C(F)(F)F)c2-c2ccc(OC)c(OC)c2)c(O)c1 [DPP-20], which MIC [3, 12] is on record?
A: Its MIC is 12.5 µg/mL.

Q: And the MIC [3, 13]?
A: Its MIC is 30.5 µM.

Q: And the “MIC S. aureus” value [3]?
A: Its value is 12.5 µg/mL (≈ 30.6 µM).

Q: What about the MIC [3, 14] of the same compound?
A: Its MIC is 30.49 µM.

Q: What about the CC50 at 24 h (in vitro) of the same compound?
A: The CC50 at 24 h was 16.5 µg/mL and 40.3 µM.

Q: What about the “Selectivity Index” value (HEK293 cells [4]) of the same compound?
A: Its value is 1.32.

Q: What about the LC20 (HEK293 cells [4]) of the same compound?
A: Its LC20 is 3 µg/mL (≈ 7.35 µM).

Q: And the MIC [5]?
A: The MIC was 25 µg/mL (≈ 61.2 µM).

Q: And the MIC [6]?
A: Its MIC is 25 µg/mL (≈ 61.2 µM).

Q: And the MIC [7]?
A: The MIC was greater than 250 µg/mL.

Q: And the MIC [8]?
A: Its MIC is greater than 250 µg/mL.

Q: What about the MIC [9] of the same compound?
A: Its MIC is greater than 250 µg/mL.

Q: And the MIC [10]?
A: Its MIC is 6.25 µg/mL (≈ 15.3 µM).

Q: What about the “% FITC stained bacteria 0.5 xMIC” value (S. aureus str. Newman) of the same compound?
A: Its value is 31.90%.

Q: What about the “% FITC stained bacteria 1 xMIC” value (S. aureus str. Newman) of the same compound?
A: Its value is 40.99%.

Q: And the “% FITC stained bacteria 2 xMIC” value (S. aureus str. Newman)?
A: The value was 50.97%.

Q: What about the Membrane damage (S. aureus str. Newman) of the same compound?
A: Its Membrane damage is “YES”.

Q: What about the RBC hemolysis (sheep red blood cells) of the same compound?
A: The RBC hemolysis was “not hemolytic”.

Q: And the “cells in G2/M phase” value (HEK293 cells [11])?
A: The value was 26.25% ± 4.68%.

Q: And the “Morphological changes of HEK293 cells” value (HEK293 cells [11])?
A: The value was “no morphological changes”.
